Values of other authors as cited in patent US10113200B2, “Genes associated with dasatinib sensitivity” (MEMORIAL SLOAN-KETTERING CANCER CENTER, priority 2012, dated 2018).

Tested on: patients with chronic phase CML
Conditions: 100 mg once-daily compared with 70 mg twice-daily

For `Cc1nc(Nc2ncc(C(=O)Nc3c(C)cccc3Cl)s2)cc(N2CCN(CCO)CC2)n1` [dasatinib], the safety profile is listed as “improves the safety profile, particularly decreasing pleural effusion and thrombocytopenia, while maintaining efficacy”.
